# Assay results published in ChEMBL document CHEMBL4414553, “Imidazopyridine-based selective and multifunctional ligands of biological targets associated with psychiatric and neurodegenerative diseases” (Eur J Med Chem, 2019).
# Legend:
# [1] = biological target: T1, Orexin/Hypocretin receptor type 1 (Homo sapiens, UniProt O43613); assay: Antagonist activity at human OX1R expressed in CHOK1 cells by Syto62 probe based fluorescence assay; type: cell-based
# T1 sequence (O43613 whole entry): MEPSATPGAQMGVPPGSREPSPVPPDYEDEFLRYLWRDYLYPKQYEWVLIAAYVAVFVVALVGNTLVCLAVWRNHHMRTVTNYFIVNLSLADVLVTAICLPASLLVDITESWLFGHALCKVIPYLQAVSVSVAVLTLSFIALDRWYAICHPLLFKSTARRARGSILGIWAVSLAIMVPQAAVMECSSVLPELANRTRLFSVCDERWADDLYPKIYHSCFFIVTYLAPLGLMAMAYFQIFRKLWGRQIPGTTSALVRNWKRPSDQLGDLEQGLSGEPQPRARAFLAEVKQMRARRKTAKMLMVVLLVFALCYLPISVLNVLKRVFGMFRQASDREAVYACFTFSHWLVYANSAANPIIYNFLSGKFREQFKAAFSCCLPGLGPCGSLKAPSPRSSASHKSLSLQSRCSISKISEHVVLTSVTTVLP
# Orexin receptor type 2 = biological target: T2, Orexin receptor type 2 (Homo sapiens, UniProt O43614); assay: Antagonist activity at human OX2R expressed in CHOK1 cells by Syto62 probe based fluorescence assay; type: cell-based
# T2 sequence (O43614 whole entry): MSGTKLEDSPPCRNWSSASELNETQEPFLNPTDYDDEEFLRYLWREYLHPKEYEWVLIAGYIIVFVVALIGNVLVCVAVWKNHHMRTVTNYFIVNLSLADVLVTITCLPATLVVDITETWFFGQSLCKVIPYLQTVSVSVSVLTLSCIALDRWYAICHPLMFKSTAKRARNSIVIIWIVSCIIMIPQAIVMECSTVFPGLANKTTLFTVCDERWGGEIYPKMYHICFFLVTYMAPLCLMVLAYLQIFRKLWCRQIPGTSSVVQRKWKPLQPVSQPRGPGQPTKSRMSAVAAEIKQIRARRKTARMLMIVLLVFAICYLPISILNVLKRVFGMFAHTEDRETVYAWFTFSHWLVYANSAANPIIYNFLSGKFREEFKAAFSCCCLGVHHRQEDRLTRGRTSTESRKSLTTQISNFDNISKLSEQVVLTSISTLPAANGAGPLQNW
structure (smiles),measurement,setting,value
O=C(c1nccc2[nH]cnc12)N1CCC(F)(F)C(Oc2ccc3ccccc3n2)C1 (configuration not stated),IC50,[1],89 nM
same,IC50,Orexin receptor type 2,> 5870 nM
